From publication PMC6934184, “Selective DNA-PKcs inhibition extends the therapeutic index of localized radiotherapy and chemotherapy” (The Journal of Clinical Investigation, 2019)

Target: T1, RET M918T (Homo sapiens, UniProt P07949, M918T)
T1 construct: purchased Thermo Fisher Scientific (Life Technologies) SelectScreen
Assay: SelectScreen LanthaScreen
Assay type: binding
Settings: read-out: % displacement
How it was run: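 NU5455 was profiled across the SelectScreen Broad panel of kinase activity and binding assays. Z'LYTE reactions such as CSF1R ran at apparent Km ATP, while the Adapta CAMK1 assay used ATP listed as 10. Values are given as percent.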

T1 sequence (P07949 29-1114 M918T): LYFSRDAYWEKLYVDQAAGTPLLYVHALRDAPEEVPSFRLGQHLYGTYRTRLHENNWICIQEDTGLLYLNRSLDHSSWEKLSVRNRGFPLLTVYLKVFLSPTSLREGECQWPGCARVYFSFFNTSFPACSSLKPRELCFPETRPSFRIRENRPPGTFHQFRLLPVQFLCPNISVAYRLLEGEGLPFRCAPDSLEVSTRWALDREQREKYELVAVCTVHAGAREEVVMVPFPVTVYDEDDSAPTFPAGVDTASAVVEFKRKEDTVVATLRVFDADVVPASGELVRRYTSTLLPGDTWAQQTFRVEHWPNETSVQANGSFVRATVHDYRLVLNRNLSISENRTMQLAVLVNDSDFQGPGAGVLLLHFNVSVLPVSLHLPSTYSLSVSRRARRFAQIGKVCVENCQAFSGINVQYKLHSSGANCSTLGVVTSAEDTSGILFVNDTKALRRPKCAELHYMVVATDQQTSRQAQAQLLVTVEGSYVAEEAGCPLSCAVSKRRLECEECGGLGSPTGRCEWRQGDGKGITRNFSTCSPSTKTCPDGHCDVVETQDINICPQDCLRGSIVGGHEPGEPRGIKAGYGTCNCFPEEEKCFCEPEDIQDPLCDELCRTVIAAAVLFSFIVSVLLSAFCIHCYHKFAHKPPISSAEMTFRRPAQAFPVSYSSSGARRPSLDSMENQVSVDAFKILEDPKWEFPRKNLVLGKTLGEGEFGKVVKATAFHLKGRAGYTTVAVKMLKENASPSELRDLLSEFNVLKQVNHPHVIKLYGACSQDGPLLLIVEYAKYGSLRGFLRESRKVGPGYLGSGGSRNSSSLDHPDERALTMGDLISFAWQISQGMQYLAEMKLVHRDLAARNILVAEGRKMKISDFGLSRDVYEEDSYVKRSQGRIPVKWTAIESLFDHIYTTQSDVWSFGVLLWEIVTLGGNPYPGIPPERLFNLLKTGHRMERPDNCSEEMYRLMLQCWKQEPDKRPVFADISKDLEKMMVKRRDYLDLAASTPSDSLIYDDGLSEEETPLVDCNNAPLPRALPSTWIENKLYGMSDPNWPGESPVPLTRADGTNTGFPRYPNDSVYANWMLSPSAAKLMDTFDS

For `CN(C(=O)CN1CCOCC1)c1ccc2sc3c(-c4cccc5c(=O)cc(N6CC7CCC(C6)O7)oc45)cccc3c2c1` [NU5455], which inhibition at 1 µM is on record?
The inhibition at 1 µM was -3.5%.
